Measurements: patent US11000033B2, “Ketone or oxime compound, and herbicide” (NISSAN CHEMICAL CORPORATION, priority 2014, dated 2021)

Columns and labels:
Type in all cases: in vivo
Galium spurium = assay: Test Example 5: herbicidal effect by foliage application, plastic box (symbol Q); settings: 320 g/ha, 3 weeks after application
Outline: (§1)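 Sowing in sterilized diluvial soil, 14 days' greenhouse growth at 25° C. to 30° C., then uniform small-sprayer foliar application of aqueous emulsion dilution; plants scored three weeks afterwards.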

Chenopodium album = assay: Test Example 5: herbicidal effect by foliage application, plastic box (symbol O); settings: 320 g/ha, 3 weeks after application
Outline: as §1

Apera spica-venti [1] = assay: Test Example 5: herbicidal effect by foliage application, plastic box (symbol L); settings: 320 g/ha, 3 weeks after application
Outline: as §1

rapeseed = assay: Test Example 5: effect on crop by foliage application, plastic box (symbol g); settings: 320 g/ha, 3 weeks after application
Outline: (§2)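 Sterilized diluvial soil, plastic box (21 × 13 × 7 cm); spot sowing, ~1.5 cm soil cover; greenhouse 25–30° C.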

Veronica persica = assay: Test Example 5: herbicidal effect by foliage application, plastic box (symbol R); settings: 320 g/ha, 3 weeks after application
Outline: as §1

soybean = assay: Test Example 4: effect on crop by soil treatment (symbol d); settings: application herbicide amount 320 g/ha
Outline: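 Steps: fill box with sterilized diluvial soil; sow seed spot-like; cover with ~1.5 cm soil; grow in greenhouse (25° C. to 30° C.).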

Stellaria media = assay: Test Example 5: herbicidal effect by foliage application, plastic box (symbol P); settings: 320 g/ha, 3 weeks after application
Outline: as §1

Digitaria ciliaris = assay: Test Example 5: herbicidal effect by foliage application, plastic box (symbol F); settings: 320 g/ha, 3 weeks after application
Outline: as §1

Leptochloa chinensis = assay: Test Example 3: herbicidal effect by foliage application, Wagner pot (symbol D); settings: application herbicide amount 320 g/ha
Outline: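 Foliar spray of water-diluted emulsion formulation at a predetermined herbicide amount onto 14-day-old plants in flooded alluvial soil (water depth 0.1–0.5 cm), greenhouse 25–30 °C; rice sown alongside. Scored 3 wk post-application on set criteria.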

[2] = tested on: Echinochloa crus-galli var. crus-galli; assay: Test Example 5: herbicidal effect by foliage application, plastic box (symbol H); settings: 320 g/ha, 3 weeks after application
Outline: as §1

Apera spica-venti [3] = assay: Test Example 4: herbicidal effect by soil treatment (symbol L); settings: application herbicide amount 320 g/ha
Outline: (§3)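 Seeds were sown in sterilized diluvial soil, covered with about 1.5 cm of soil, and the soil surface was sprayed with a water-diluted emulsion of the compound at a predetermined rate. Plants grew in a greenhouse at 25° C. to 30° C.; effects were scored visually 3 weeks after application.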

Amaranthus retroflexus = assay: Test Example 4: herbicidal effect by soil treatment (symbol N); settings: application herbicide amount 320 g/ha
Outline: as §3

Abutilon theophrasti = assay: Test Example 5: herbicidal effect by foliage application, plastic box (symbol M); settings: 320 g/ha, 3 weeks after application
Outline: as §1

Setaria viridis = assay: Test Example 4: herbicidal effect by soil treatment (symbol G); settings: application herbicide amount 320 g/ha
Outline: as §3

Avena fatua [4] = assay: Test Example 4: herbicidal effect by soil treatment (symbol I); settings: application herbicide amount 320 g/ha
Outline: as §3

Avena fatua [5] = assay: Test Example 5: herbicidal effect by foliage application, plastic box (symbol I); settings: 320 g/ha, 3 weeks after application
Outline: as §1

beet = assay: Test Example 5: effect on crop by foliage application, plastic box (symbol f); settings: 320 g/ha, 3 weeks after application
Outline: as §2

Scirpus juncoides = assay: Test Example 1: herbicidal activity, application before weed generation in submerged conditions (symbol B); settings: application herbicide amount 320 g/ha
Outline: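 0–5 visual score, 3 wk post-application. Submerged pots, alluvial soil, water 4 cm; seeds sown mixed, rice at 2.5 leaves transplanted. Emulsion diluted to predetermined dose, applied to water surface at sowing. 25–30 °C greenhouse.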

SMILES | Q: Galium spurium, herbicidal effect grade (Galium spurium) | O: Chenopodium album, herbicidal effect grade (Chenopodium album) | L: Apera spica-venti, herbicidal effect grade (Apera spica-venti [1]) | g: rapeseed, effect on crop grade (rapeseed) | R: Veronica persica, herbicidal effect grade (Veronica persica) | P: Stellaria media, herbicidal effect grade (Stellaria media) | F: Digitaria ciliaris, herbicidal effect grade (Digitaria ciliaris) | herbicidal effect on D (Leptochloa chinensis), grade 0-5 (Leptochloa chinensis) | H: Echinochloa crus-galli var. crus-galli, herbicidal effect grade [2] | M: Abutilon theophrasti, herbicidal effect grade (Abutilon theophrasti) | I: Avena fatua, herbicidal effect grade (Avena fatua [5]) | f: beet, effect on crop grade (beet) | Herbicidal effect grade, B: Scirpus juncoides (Scirpus juncoides) | d: soybean, effect on crop grade (soybean) | L: Apera spica-venti, herbicidal effect grade (Apera spica-venti [3]) | N: Amaranthus retroflexus, herbicidal effect grade (Amaranthus retroflexus) | G: Setaria viridis, herbicidal effect grade (Setaria viridis) | I: Avena fatua, herbicidal effect grade (Avena fatua [4]) | Q: Galium spurium, herbicidal effect (criteria of Test Example 1) (Galium spurium) | O: Chenopodium album, herbicidal effect (criteria of Test Example 1) (Chenopodium album) | further results
CC(CC1CC(O)=C(c2c(C)cc(C)cc2C)C1=O)=NOCc1ccccn1 (stereo not drawn) [1-022] | 4 (Herbicidal ratio of 70% or higher and lower than 90%) | 3 (Herbicidal ratio of 40% or higher and lower than 70%) | 5 (Herbicidal ratio of 90% or more (almost completely withered)) | 4 (Herbicidal ratio of 70% or higher and lower than 90%) | 3 (Herbicidal ratio of 40% or higher and lower than 70%) | 3 (Herbicidal ratio of 40% or higher and lower than 70%) | 5 (Herbicidal ratio of 90% or more (almost completely withered)) | 5 (Herbicidal ratio of 90% or more (almost completely withered)) | 5 (Herbicidal ratio of 90% or more (almost completely withered)) | 1 (Herbicidal ratio of 5% or higher and lower than 20%) | 5 (Herbicidal ratio of 90% or more (almost completely withered)) | 0 (Herbicidal ratio of 5% or lower (almost no effect)) | 5 (Herbicidal ratio of 90% or more (almost completely withered)) |  |  |  |  |  |  |  | d (soybean) effect on crop grade (soybean): 0 (Herbicidal ratio of 5% or lower (almost no effect)); L (Apera spica-venti) herbicidal effect grade (Apera spica-venti [3]): 5 (Herbicidal ratio of 90% or more (almost completely withered)); N (Amaranthus retroflexus) herbicidal effect grade (Amaranthus retroflexus): 0 (Herbicidal ratio of 5% or lower (almost no effect)); G (Setaria viridis) herbicidal effect grade (Setaria viridis): 3 (Herbicidal ratio of 40% or higher and lower than 70%); I (Avena fatua) herbicidal effect grade (Avena fatua [4]): 4 (Herbicidal ratio of 70% or higher and lower than 90%)
CON=C(C)CC1CC(O)=C(c2c(C)cc(OCc3ccncc3)cc2C)C1=O (mixture of isomers) [6-053] | 0 (Herbicidal ratio of 5% or lower (almost no effect)) | 0 (Herbicidal ratio of 5% or lower (almost no effect)) | 4 (Herbicidal ratio of 70% or higher and lower than 90%) | 3 (Herbicidal ratio of 40% or higher and lower than 70%) | 0 (Herbicidal ratio of 5% or lower (almost no effect)) | 0 (Herbicidal ratio of 5% or lower (almost no effect)) | 5 (Herbicidal ratio of 90% or more (almost completely withered)) | 5 (Herbicidal ratio of 90% or more (almost completely withered)) | 5 (Herbicidal ratio of 90% or more (almost completely withered)) | 0 (Herbicidal ratio of 5% or lower (almost no effect)) | 3 (Herbicidal ratio of 40% or higher and lower than 70%) | 0 (Herbicidal ratio of 5% or lower (almost no effect)) | 2 (Herbicidal ratio of 20% or higher and lower than 40%) | 0 (Herbicidal ratio of 5% or lower (almost no effect)) | 0 (Herbicidal ratio of 5% or lower (almost no effect)) | 0 (Herbicidal ratio of 5% or lower (almost no effect)) | 3 (Herbicidal ratio of 40% or higher and lower than 70%) | 1 (Herbicidal ratio of 5% or higher and lower than 20%) |  |  | 
COc1ccc(-c2cc(C)c(C3=C(O)CC(CC(C)=O)C3=O)c(C)c2)cc1 (stereo not drawn) [7-006] |  |  |  |  |  |  |  | 5 (Herbicidal ratio of 90% or more (almost completely withered)) |  |  |  |  | 0 (Herbicidal ratio of 5% or lower (almost no effect)) |  |  |  |  |  | 0 (Herbicidal ratio of 5% or lower (almost no effect)) | 3 (Herbicidal ratio of 40% or higher and lower than 70%) | L: Apera spica-venti, herbicidal effect (criteria of Test Example 1) (Apera spica-venti [1]): 4 (Herbicidal ratio of 70% or higher and lower than 90%); g: rapeseed, effect on crop (criteria of Test Example 1) (rapeseed): 3 (Herbicidal ratio of 40% or higher and lower than 70%); R: Veronica persica, herbicidal effect (criteria of Test Example 1) (Veronica persica): 0 (Herbicidal ratio of 5% or lower (almost no effect)); Effect on crop grade, d: soybean (soybean): 1 (Herbicidal ratio of 5% or higher and lower than 20%); P: Stellaria media, herbicidal effect (criteria of Test Example 1) (Stellaria media): 0 (Herbicidal ratio of 5% or lower (almost no effect)); F: Digitaria ciliaris, herbicidal effect (criteria of Test Example 1) (Digitaria ciliaris): 5 (Herbicidal ratio of 90% or more (almost completely withered)); H: Echinochloa crus-galli var. crus-galli, herbicidal effect (criteria of Test Example 1) [2]: 5 (Herbicidal ratio of 90% or more (almost completely withered)); Herbicidal effect grade, L: Apera spica-venti (Apera spica-venti [3]): 0 (Herbicidal ratio of 5% or lower (almost no effect)); Herbicidal effect grade, N: Amaranthus retroflexus (Amaranthus retroflexus): 0 (Herbicidal ratio of 5% or lower (almost no effect)); M: Abutilon theophrasti, herbicidal effect (criteria of Test Example 1) (Abutilon theophrasti): 0 (Herbicidal ratio of 5% or lower (almost no effect)); Herbicidal effect grade, G: Setaria viridis (Setaria viridis): 0 (Herbicidal ratio of 5% or lower (almost no effect)); Herbicidal effect grade, I: Avena fatua (Avena fatua [4]): 0 (Herbicidal ratio of 5% or lower (almost no effect)); I: Avena fatua, herbicidal effect (criteria of Test Example 1) (Avena fatua [5]): 3 (Herbicidal ratio of 40% or higher and lower than 70%); f: beet, effect on crop (criteria of Test Example 1) (beet): 0 (Herbicidal ratio of 5% or lower (almost no effect))
CON=C(C)CC1CC(OC(=O)COc2ccccc2)=C(c2c(C)cc(-c3ccc(Cl)cc3)cc2C)C1=O (mixture of isomers) [6-061] |  |  |  |  |  |  |  | 5 (Herbicidal ratio of 90% or more (almost completely withered)) |  |  |  |  | 1 (Herbicidal ratio of 5% or higher and lower than 20%) | 0 (Herbicidal ratio of 5% or lower (almost no effect)) | 5 (Herbicidal ratio of 90% or more (almost completely withered)) | 3 (Herbicidal ratio of 40% or higher and lower than 70%) | 5 (Herbicidal ratio of 90% or more (almost completely withered)) | 4 (Herbicidal ratio of 70% or higher and lower than 90%) | 3 (Herbicidal ratio of 40% or higher and lower than 70%) | 4 (Herbicidal ratio of 70% or higher and lower than 90%) | L: Apera spica-venti, herbicidal effect (criteria of Test Example 1) (Apera spica-venti [1]): 5 (Herbicidal ratio of 90% or more (almost completely withered)); g: rapeseed, effect on crop (criteria of Test Example 1) (rapeseed): 4 (Herbicidal ratio of 70% or higher and lower than 90%); R: Veronica persica, herbicidal effect (criteria of Test Example 1) (Veronica persica): 4 (Herbicidal ratio of 70% or higher and lower than 90%); P: Stellaria media, herbicidal effect (criteria of Test Example 1) (Stellaria media): 3 (Herbicidal ratio of 40% or higher and lower than 70%); F: Digitaria ciliaris, herbicidal effect (criteria of Test Example 1) (Digitaria ciliaris): 5 (Herbicidal ratio of 90% or more (almost completely withered)); H: Echinochloa crus-galli var. crus-galli, herbicidal effect (criteria of Test Example 1) [2]: 5 (Herbicidal ratio of 90% or more (almost completely withered)); M: Abutilon theophrasti, herbicidal effect (criteria of Test Example 1) (Abutilon theophrasti): 4 (Herbicidal ratio of 70% or higher and lower than 90%); I: Avena fatua, herbicidal effect (criteria of Test Example 1) (Avena fatua [5]): 5 (Herbicidal ratio of 90% or more (almost completely withered)); f: beet, effect on crop (criteria of Test Example 1) (beet): 3 (Herbicidal ratio of 40% or higher and lower than 70%)
